Patent US20180116224A1, “PESTICIDAL COMPOSITIONS AND RELATED METHODS” (priority 2015, published 2018)

Tested on: green peach aphid (Myzus persicae)
Experiment: pesticidal activity against green peach aphid on cabbage plants after soil treatment
Format: in vivo
Settings: for number of live GPA aphids: 6.25 ppm loading, no soil conditioner
Method: Each tested compositions was prepared by mixing a predetermined amount of the CLOSER® SC insecticide (a sulfoxaflor concentrate having a sulfoxaflor concentration of 240 g/L) with a predetermined amount of the organic soil conditioner ACCELL®-STR in an aqueous medium.
The compositions containing different amounts of sulfoxaflor and the organic soil conditioner ACCELL®-STR were prepared as shown in TABLE 1. For example, the “Sulfoxaflor at 6.25 ppm” composition contained about 0.003% weight of sulfoxaflor based on total weight of the composition (i.e., 6.25 ppm of sulfoxaflor per one gram of final soil mixture). “Sulfoxaflor at 6.25 ppm+ACCELL®-STR at 384 ppm” composition contained about 0.003% weight of sulfoxaflor based on total weight of the composition (i.e., 6.25 ppm of sulfoxaflor per one gram of final soil mixture), and about 0.225% weight of the organic soil conditioner ACCELL®-STR based on total weight of the composition (i.e., 384 ppm per one gram of the final soil mixture; 1500 ppm per one gram of the total soil liquid).
The imidacloprid pesticide PROVADO® 1.6 from Bayer CropScience LP (North Carolina, USA) was used as a standard commercial pesticidal composition for aphid control. The imidacloprid pesticide PROVADO® 1.6 was tested at the same loading as that used for the sulfoxaflor, which was 6.25 ppm per gram of final soil mixture.
In this EXAMPLE 4, water was tested as a control composition. Furthermore, an aqueous solution of the organic soil conditioner ACCELL®-STR was tested.
Cabbage plants (Brassica oleracea capitata L) of uniform size (two new leaf stage) infested with green peach aphids (Myzus persicae) (“GPA”) were used as the study models according to the following procedure:
Cabbage seeds were planted in 3-inch pots containing a peat-based METRO MIX 360® potting soil available from SUN GRO® Horticulture Canada, Ltd. The seeds were propagated in greenhouse zone G4, located in the R&D building of Dow AgroSciences (Indianapolis, Ind., USA), at 26° C. with a relative humidity of 53%. Natural light was supplemented with 1,000-watt metal halide overhead lamps with an average illumination of about 500 μE/m^2.s photosynthetic active radiation for 16 consecutive hours each day.
Each of the 1-ounce clear cups was filled with about 30 grams of the inoculated Midwest field soil having the components as shown in TABLE 2. […] The soil moisture of the Midwest field soil was about 15% as measured by Mettler LJ16 Moisture Analyzer (15 minutes and 100° C.).
The Midwest field soil in each selected 1-ounce cup was treated with about 9 mL of the selected composition using a 10 mL pipette. […]
The pesticidal activity against GPA was determined three days after infestation, by counting the number of live GPA aphids present on each cabbage plant. […]

[1] = dose rate 6.25 ppm sulfoxaflor alone

C[C@@H](c1ccc(C(F)(F)F)nc1)[S@](C)(=O)=NC#N (racemic) [Sulfoxaflor, [methyl(oxo){1-[6-(trifluoromethyl)-3-pyridyl]ethyl}-λ^6-sulfanylidene]cyanamide]
number of live GPA aphids (DAT of 21 days, counted three days after infestation): about 10
number of live GPA aphids (DAT of 28 days): about 90
% Control at DAT of 21 days [1]: 91.19%
% Control at DAT of 28 days [1]: 0%
